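Following 48 hours of exposure in 96-well plates, responses at five concentrations were used to interpolate endpoints linearly. Abbreviation: GI50, concentration required for 50% inhibition of growth. TGI: concentration producing complete growth inhibition.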
Tests used:
Experiment in all cases: inhibition of tumour cell growth, NCI panel, 48 h
MALME-3M melanoma = test system: MALME-3M melanoma
DMS 114 small cell lung = test system: DMS 114 small cell lung
DMS 273 small cell lung = test system: DMS 273 small cell lung
DLD-1 colon = test system: DLD-1 colon
M19-MEL melanoma = test system: M19-MEL melanoma
SNB-78 CNS = test system: SNB-78 CNS
MDA-MB-231 breast = test system: MDA-MB-231 breast
MDA-MB-435 = test system: MDA-MB-435
SR leukemia = test system: SR leukemia
MDA-N = test system: MDA-N
DU-145 prostate = test system: DU-145 prostate
M14 melanoma = test system: M14 melanoma
BT-549 breast = test system: BT-549 breast

With `CC(=O)NC1=C[C@@H]([C@H]2COC(C)(C)O2)OC1=O` the TGI (MALME-3M melanoma) was over 100 µM, the TGI (DMS 114 small cell lung) was over 100 µM and the TGI (DMS 273 small cell lung) was over 100 µM. For the same compound, the TGI (DLD-1 colon) was over 100 µM, the TGI (M19-MEL melanoma) was over 100 µM and the TGI (SNB-78 CNS) was over 100 µM.
With `COC(=O)N1CC2C3C4CC(C(c5ccccc5)=C4c4ccccc4)C3C21` (centres undefined) the TGI (MDA-MB-231 breast) was 22.3 µM, the TGI (MDA-MB-435) was 32.8 µM and the TGI (SR leukemia) was 51.1 µM. For the same compound, the TGI (MDA-N) was 46.5 µM, the TGI (DU-145 prostate) was 34.5 µM and the TGI (M14 melanoma) was 51.9 µM. The TGI (BT-549 breast) was 31.4 µM.
Compound `O=C(Nc1ccc(-n2ccc3c(NC(=O)c4ccccc4)ncnc32)cc1)Nc1cccc(Cl)c1Cl` has a GI50 (MALME-3M melanoma) of 1.04 µM, a TGI (MALME-3M melanoma) of 4.13 µM and a GI50 (MDA-MB-231 breast) of 1.02 µM. The TGI (MDA-MB-231 breast) was 3.05 µM, the GI50 (MDA-MB-435) was 1.53 µM and the TGI (MDA-MB-435) was 8.64 µM. The GI50 (SR leukemia) was 0.659 µM, the TGI (SR leukemia) was 2.92 µM and the GI50 (DU-145 prostate) was 1.47 µM. It also gave a TGI (DU-145 prostate) of 3.85 µM, a GI50 (M14 melanoma) of 0.973 µM and a TGI (M14 melanoma) of 2.11 µM.
`C=C(OC1C(C)=C2C(C1OC(=O)CCCCCCC)C(C)(OC(C)=O)CC(OC(=O)CCC)C1(O)C2OC(=O)C1(C)O)/C(C)=C/C` (centres undefined) was tested, and the GI50 (MALME-3M melanoma) was 0.000907 µM, the TGI (MALME-3M melanoma) was 0.131 µM and the TGI (DMS 114 small cell lung) was 0.207 µM. The TGI (DMS 273 small cell lung) was 0.453 µM, the TGI (DLD-1 colon) was 16.4 µM and the TGI (M19-MEL melanoma) was 1.29 µM. The TGI (SNB-78 CNS) was 19.1 µM.
In the case of `CCOC(=O)CC1(c2cccc3ccccc23)OC(=O)c2ccccc21` (centres undefined), the TGI (MALME-3M melanoma) is reported as 96.2 µM, the TGI (DMS 114 small cell lung) is reported as over 100 µM and the TGI (DMS 273 small cell lung) is reported as over 100 µM. For the same compound, the TGI (DLD-1 colon) was over 100 µM, the TGI (M19-MEL melanoma) was over 100 µM and the TGI (SNB-78 CNS) was over 100 µM.
Compound `CC/C=C(\C(=C/CC)[N+](=O)[O-])[N+](=O)[O-]` has a TGI (MDA-MB-231 breast) of 36.2 µM, a TGI (MDA-MB-435) of 31.6 µM and a TGI (MDA-N) of 43 µM. The TGI (DU-145 prostate) was 45.7 µM, the TGI (M14 melanoma) was 27 µM and the TGI (BT-549 breast) was 32.2 µM.
Work on `Nc1nc(N)c2cc(NCc3ccc(Cl)c(Cl)c3)ccc2n1` yielded a GI50 (MDA-MB-231 breast) of 1.3 µM, a TGI (MDA-MB-231 breast) of 2.58 µM and a GI50 (MDA-MB-435) of 1.11 µM. It also gave a TGI (MDA-MB-435) of 2.4 µM, a GI50 (DU-145 prostate) of 1.65 µM and a TGI (DU-145 prostate) of 3.01 µM. It also gave a GI50 (M14 melanoma) of 0.841 µM and a TGI (M14 melanoma) of 2.16 µM.
In the case of `O=C(O)/C(Cc1ccc([N+](=O)[O-])cc1)=N\O`, the TGI (MALME-3M melanoma) is reported as over 100 µM, the TGI (MDA-MB-231 breast) is reported as over 100 µM and the TGI (MDA-MB-435) is reported as over 100 µM. It also gave a TGI (MDA-N) of over 100 µM, a TGI (DU-145 prostate) of over 100 µM and a TGI (M14 melanoma) of over 100 µM. It also gave a TGI (BT-549 breast) of over 100 µM.
